Experimental data reported in the NIST ThermoML archive (doi:10.1021/je3003578).

Assay: xn = mol fraction of the nth substance listed
Details: 101 kPa, Liquid

CCOCCCN [3-ethoxy-1-propanamine] + O
mass density [kg/m3]
Details	283.15 K	288.15 K	293.15 K	298.15 K	303.15 K
x1 = 0.000108	999.685	999.073	998.176	997.018	995.609
x1 = 0.000319	999.612	998.997	998.098	996.937	995.522
x1 = 0.000625	999.489	–	997.974	996.811	995.392
x1 = 0.000707	999.462	–	–	–	–
x1 = 0.000942	999.378	998.755	997.845	996.67	995.256
x1 = 0.001046	999.335	–	–	–	–
x1 = 0.001284	999.244	998.623	997.706	996.533	995.106
x1 = 0.001947	999.006	998.367	997.459	996.269	994.822
x1 = 0.002912	998.665	998.003	997.058	995.851	994.409
x1 = 0.00392	998.32	997.639	996.673	995.45	993.991
x1 = 0.005098	997.943	997.245	996.25	995.024	993.55
x1 = 0.007456	997.213	996.459	–	–	–
x1 = 0.00981	996.579	995.782	994.681	993.348	991.796
x1 = 0.0148	995.454	994.495	993.269	991.824	990.144
x1 = 0.01956	994.585	993.456	992.092	990.53	988.708
x1 = 0.02832	993.306	991.899	990.264	988.433	986.387
x1 = 0.03914	992.137	990.361	988.357	986.207	983.868
x1 = 0.05082	991.126	988.889	986.504	983.995	981.31
x1 = 0.06674	989.564	986.858	983.968	980.975	977.903
x1 = 0.09536	985.793	982.292	978.874	975.145	971.645
x1 = 0.1209	981.126	977.267	973.326	969.369	965.331
x1 = 0.1452	976.001	971.617	967.737	963.561	959.341
x1 = 0.1844	967.807	962.845	958.517	954.192	949.751
x1 = 0.2121	960.275	955.87	951.456	947.02	942.563
x1 = 0.2438	954.343	948.987	944.543	940.074	935.55
x1 = 0.2923	944.589	939.953	935.456	930.954	926.38
x1 = 0.361	932.627	926.801	922.252	917.676	913.059
x1 = 0.4369	921.019	916.153	911.545	906.929	902.254
x1 = 0.4937	911.932	907.295	902.62	897.985	893.262
x1 = 0.5513	904.655	900.039	895.311	890.64	885.906
x1 = 0.6214	896.914	892.186	887.472	882.775	877.992
x1 = 0.6775	891.266	886.402	881.634	876.891	872.12
x1 = 0.6943	889.59	884.998	880.062	875.446	870.586
x1 = 0.7458	884.839	880.089	875.436	870.539	865.744
x1 = 0.7733	882.976	–	873.142	868.397	863.589
x1 = 0.7947	880.664	875.868	871.067	866.312	861.557
x1 = 0.8276	878.228	873.43	868.648	863.952	859.105
x1 = 0.8488	876.201	871.511	–	862.009	–
x1 = 0.8744	874.608	–	864.922	860.155	855.327
x1 = 0.8993	872.317	867.858	862.73	858.054	853.46
x1 = 0.9189	871.084	866.306	861.498	856.71	851.896
x1 = 0.9349	–	864.955	–	–	–
x1 = 0.9411	869.403	–	859.742	855.013	850.2
x1 = 0.9436	–	864.338	–	–	–
x1 = 0.9486	868.869	–	859.29	854.542	849.691
x1 = 0.9601	868.041	863.267	–	–	–
x1 = 0.9613	–	–	858.247	853.53	848.739
x1 = 0.9746	–	–	857.315	852.649	847.719
x1 = 0.9755	–	862.192	–	–	–
x1 = 0.985	866.322	861.525	–	–	–
x1 = 0.9871	–	–	856.398	851.83	846.839
x1 = 1	865.36	860.63	855.715	851.018	846.075
